Here are results for 25 molecules from US8008340B2, “3-arylthioindole-2-carboxamide derivatives and analogs thereof as inhibitors of casein kinase I” (Aventis Pharmaceuticals Inc., priority 2004, dated 2011).

The test system of one series is Mper1-luc Rat-1 fibroblasts (P2C4). The series is described as follows: Cellular Circadian Assay (Mper1-luc reporter, period lengthening). The class given is cell-based. The note with it: effective micromolar concentration that induced a 1 hour lengthening of period. The text has this:
U.S. Pat. No. 6,555,328 B1 discloses screening methods in cells to identify compounds that alter circadian rhythms based on a test compound altering the ability of human casein kinase 1ε and/or human casein kinase 1δ to phosphorylate the human clock proteins hPER1, hPER2 and hPER3. For example, HEK293T cells are co-transfected with hCKIε and Per1 or Per2. For the purpose of evaluating the relevancy of CKIε inhibition and CKIε inhibitors to circadian biology, a high-throughput cellular assay (33rd Annual Meeting, Soc. for Neurosci., Nov. 8-12, 2003, Abstract numbers 284.1, 284.2, and 284.3) was developed in which circadian rhythm could be monitored in a routine manner. The assay consists of Rat-1 fibroblasts stably expressing an Mper1-luc construct, thus enabling the determination of the rhythmic activation of the Mper1 promoter in living cells by repeatedly estimating luciferase activity by monitoring light-output over several days. The repeated measure format of the assay permits accurate and reproducible assessment of the concentration-dependent effects of CKIε inhibitors on circadian rhythm and provides the nexus for relating CKIε inhibition to circadian period alteration.
Cell culture: Mper1-luc Rat-1 fibroblasts (P2C4) cultures were split every 3-4 days (˜10-20% confluence) onto 150 cm^2 vented polystyrene tissue culture flasks (Falcon #35-5001) and maintained in growth media [EMEM (Cellgro #10-010-CV); 10% fetal bovine serum (FBS; Gibco #16000-044); and 50 I.U./mL penicillin-streptomycin (Cellgro #30-001-C1)] at 37° C. and 5% CO2. […] Zeocin-resistant stable transfectants were assessed for reporter expression by supplementing growth media with 100 μM luciferin (Promega #E1603) and assaying luciferase activity on a TopCount scintillation counter (Packard Model #C384V00). Rat-1 clones expressing both Zeocin-resistance and mPer1-driven luciferase activity were synchronized by 50% horse serum [HS (Gibco #16050-122)] serum shock and assessed for circadian reporter activity. […]
On to `NC(=O)c1[nH]c2ccc(Br)cc2c1Sc1ccccc1N` [Ig, 3-(2-Amino-phenylsulfanyl)-5-bromo-1H-indole-2-carboxylic acid amide], for which the “Cell Assay ECΔτ+1h” value was 1.6 µM.
As to `NC(=O)c1[nH]c2ccccc2c1Sc1cccc(F)c1` [If, 3-(3-Fluoro-phenylsulfanyl)-1H-indole-2-carboxylic acid amide], the “Cell Assay ECΔτ+1h” value worked out at 1.6 µM.

In a further series the target is T1, casein kinase 1ε (Homo sapiens, UniProt P49674).
T1 construct: made in house
T1 sequence (P49674 whole entry): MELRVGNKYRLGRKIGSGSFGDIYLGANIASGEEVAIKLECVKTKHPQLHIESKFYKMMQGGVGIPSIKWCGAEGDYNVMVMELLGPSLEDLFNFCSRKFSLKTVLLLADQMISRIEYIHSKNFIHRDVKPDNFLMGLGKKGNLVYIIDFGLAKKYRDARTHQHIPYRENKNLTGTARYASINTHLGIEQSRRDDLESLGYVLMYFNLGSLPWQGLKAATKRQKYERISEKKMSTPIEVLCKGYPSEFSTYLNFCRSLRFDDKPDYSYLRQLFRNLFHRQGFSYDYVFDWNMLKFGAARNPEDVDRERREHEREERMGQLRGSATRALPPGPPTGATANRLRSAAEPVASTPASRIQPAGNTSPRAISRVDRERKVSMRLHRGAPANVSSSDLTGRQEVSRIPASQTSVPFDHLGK
The series can be described thus: Casein Kinase Epsilon 33P-ATP Filter Plate Assay. It counts as biochemical. The following applies: phosphorylation of casein, 33P-ATP with 10 μM cold ATP, 2 hours at room temperature; * denotes average of two or more determinations; read-out: CKIε Inhibition IC50. How it is done:
Casein Kinase Epsilon ^33P-ATP Filter Plate Assay for Screening CK1ε Inhibitors Purpose: This assay measures the effect of compounds to inhibit the phosphorylation of the substrate casein by the enzyme casein kinase 1ε using an in vitro ^33P-ATP filtration assay. Compounds are tested at five concentrations in duplicate in order to generate IC50 values or % inhibition at a 10 micromolar concentration that are summarized in Table 4.
Enzyme: • Casein Kinase 1ε final concentration 0.58 mg/ml obtained from fermentation and purification processes as are well known to one skilled in the art. The above are stored as 100 μL aliquots at minus 80° C.
Compounds: • Compounds for testing are supplied as frozen 10 mM compound stock dissolved in 100% DMSO. Assay Conditions:
Final total assay volume per well is equal to 50 μL made up as follows: • 5 μL of diluted compound stock (10, 1, 0.1, 0.01 or 0.001 μM), • 5 μL of dephosphorylated casein final concentration 0.2 μg/μL, • 20 μL of CK1ε final concentration 3 ng/μL, and • 20 μL of γ-^33P-ATP final concentration 0.02 μCi/μL mixed with cold ATP (10 μM final). Methodology: • 1. 500 mL of fresh assay buffer is made: 50 mM Tris pH 7.5, 10 mM MgCl2, 2 mM DTT and 1 mM EGTA • 2. Compounds to be evaluated are obtained as 10 μL of 10 mM stock dissolved in 100% DMSO. Using a Biomek 2000 liquid handling robot, serial dilutions are made to yield 10, 1, 0.1, 0.01 and 0.001 μM final compound dilutions added as 5 μL additions to Falcon U bottom plates. Typically 8 compounds are tested per 96 well plate with column 1 and 12 serving as control wells. A routine screening assay will consist of 32 compounds, which equals 4 assay plates. • 3. Assay plate maps are set up according to the following pattern CKlePlateMap.xls
• 4. Once 5 μL of compound has been added as indicated, 5 μL of dephosphorylated casein (dissolved in distilled H2O)(0.2 μg/μL) and 20 μL CK1ε (3 ng/μL) are added to the appropriate wells. • 5. Finally 20 μL γ-^33P-ATP (0.02 μCi/μL)/10 μM cold ATP are added (equals approximately 2×10^6 CPM per well). • 6. The Falcon U-Bottom assay plate containing the above 50 μL reaction volume is vortexed and then incubated at room temperature for 2 hours. • 7. At the end of 2 hours, the reaction is stopped by the addition of 65 μL of ice cold 2 mM cold ATP (made up in assay buffer) to the assay plates using a Beckman Multimek • 8. At the same time 25 μL 100% ice cold TCA made up in distilled H2O is added to a matching number of Millipore MAPH filter plates. • 9. Using a handheld 8-channel pipettor, 100 μL of the reaction mixture is transferred from the Falcon U-Bottom Plate to the Millipore MAPH filter plates presoaked with TCA. • 10. The Millipore MAPH filter plates are mixed gently and allowed to sit at room temperature for at least 30 minutes to precipitate the proteins. • 11. After 30 minutes the filter plates are placed on a Millipore vacuum manifold and filtered at no more than 8 mm Hg as the MAPH filters tend to “air lock” at higher vacuum settings. • 12. The filter plates are sequentially washed and filtered with 2×150 μL 20% TCA, 2×150 μL 10% TCA and 2×150 μL 5% TCA (total of 6 washes per plate/900 μL per well). • 13. Plates are allowed to dry overnight at room temperature. The next day 40 μL Packard Microscint-20 Scintillation Fluid is added per well using a Titertek Multidrop dispenser; the plates are sealed and counted for 2 minutes/well in a Packard Topcount NXT Scintillation Counter (CPM values/well are captured).
Calculation: • 1. Counts Per Minute (CPM) data is captured and imported into a proprietary data calculation and archiving database (Activity Base by IDBS version 5.0). • 2. Column 1 for each plate reflects total phosphorylation activity of the enzyme in the absence of any inhibiting compound and thus represents 100%. Column 12 reflects any nonspecific phosphorylation/retained radioactivity activity in the absence of inhibiting compound and enzyme. […]
By IC50 is commonly meant the point on the concentration scale where inhibition reaches its midpoint. Consider `CNC(=O)c1[nH]c2ccccc2c1Sc1ccccc1` [Ij, 3-Phenylsulfanyl-1H-indole-2-carboxylic Acid Methylamide], for which the IC50 is over 10 µM.
As for `NC(=O)c1[nH]c2ccccc2c1Sc1ccccn1` [Ii, 3-(Pyridin-2-ylsulfanyl)-1H-indole-2-carboxylic acid amide], the half-maximal inhibitory concentration (IC50) is 187 µM.
Still for that read-out and setting: the value for `CNC(=O)c1[nH]c2ccccc2c1Sc1ccccn1` [Ik, 3-(Pyridin-2-ylsulfanyl)-1H-indole-2-carboxylic acid methylamide] was over 10 µM; that for `NC(=O)c1[nH]c2ccc(Br)cc2c1Sc1ccccc1N` [Ig, 3-(2-Amino-phenylsulfanyl)-5-bromo-1H-indole-2-carboxylic acid amide] was 0.12 µM; that for `NC(=O)c1[nH]c2ccccc2c1OCc1ccccc1` [Iu, 3-Benzyloxy-1H-indole-2-carboxylic acid amide] was 9.9 µM.
Take `COc1c(C(N)=O)[nH]c2ccccc12` [Iq, 3-Methoxy-1H-indole-2-carboxylic acid amide]: the IC50 amounted to 13.5 µM.
The same measure, in the same setting: under `NC(=O)c1[nH]c2ccccc2c1Sc1ccccc1N` [Ih, 3-(2-Amino-phenylsulfanyl)-1H-indole-2-carboxylic acid amide] stands 0.08 µM; under `NC(=O)c1[nH]c2ccccc2c1Oc1ccc(Cl)cc1` [Ip], 2.8 µM; under `CCOc1c(C(N)=O)[nH]c2ccccc12` [Ir, 3-Ethoxy-1H-indole-2-carboxylic acid amide], 8.7 µM.
For the molecule `NC(=O)c1[nH]c2ccccc2c1Sc1ccccc1` [Ic, 3-Phenylsulfanyl-1H-indole-2-carboxylic acid amide], the 50% inhibitory concentration (IC50) turned out to be 3.1 µM.
Same read-out and setting: the value for `CC(C)Oc1c(C(N)=O)[nH]c2ccccc12` [Is, 3-Isopropoxy-1H-indole-2-carboxylic acid amide] was 8.9 µM.
For `NC(=O)c1[nH]c2ccccc2c1Oc1ccc(F)cc1` [In], the half-inhibitory concentration (IC50) amounted to 0.89 µM.
On to `NC(=O)c1[nH]c2ccccc2c1Oc1ccccc1` [Il, 3-Phenoxy-1H-indole-2-carboxylic acid amide], for which the concentration for half-maximal inhibition (IC50) was over 10 µM.
On the same count and under the same terms, the value for `NC(=O)c1[nH]c2ccccc2c1Oc1ccccc1F` [Io] was 2.4 µM; that for `NC(=O)c1[nH]c2ccccc2c1Sc1cccc(F)c1` [If, 3-(3-Fluoro-phenylsulfanyl)-1H-indole-2-carboxylic acid amide] was 0.43 µM; that for `CC(C)(C)Oc1c(C(N)=O)[nH]c2ccccc12` [It, 3-tert-Butoxy-1H-indole-2-carboxylic acid amide] was 11.7 µM.
The same measure, in the same setting: under `NC(=O)c1[nH]c2ccc(Cl)cc2c1S(=O)(=O)c1ccccc1` [Ia, 3-Benzensulfonyl-5-chloro-1H-indole-2-carboxylic acid amide] stands over 10 µM.
The same measure, in the same setting: the value for `NC(=O)c1[nH]c2ccc(Br)cc2c1Sc1ccccc1` [Id, 5-Bromo-3-phenylsulfanyl-1H-indole-2-carboxylic acid amide] was 0.42 µM.
With `COc1ccc(Oc2c(C(N)=O)[nH]c3ccccc23)cc1` [Im], the IC50 came out at 5.8 µM.
On the same count and under the same terms, under `NC(=O)c1[nH]c2ccccc2c1S(=O)(=O)c1ccccc1` [Ib, 3-Benzensulfonyl-1H-indole-2-carboxylic acid amide] stands 2.7 µM.

Test system in a further series: not given
Assay: not given
Settings: not given
What is called melting point is the temperature, or range, at which the solid turns liquid. The molecule `O=C(c1[nH]c2ccccc2c1Sc1ccccn1)N1CCCC1` [Iag, [3-(Pyridin-2-ylsulfanyl)-1H-indol-2-yl]-pyrrolidin-1-yl-methanone] had a melting point of 213 to 214 °C.
On the same count and under the same terms, under `O=C(c1[nH]c2ccc(F)cc2c1Sc1ccccn1)N1CCCC1` [Iaf, [5-Fluoro-3-(pyridin-2-ylsulfanyl)-1H-indol-2-yl]-pyrrolidin-1-yl-methanone] stands 254 to 255 °C; under `NC(=O)c1[nH]c2ccccc2c1Sc1ccccc1` [Ic, 3-Phenylsulfanyl-1H-indole-2-carboxylic acid amide], 197 to 197.5 °C; under `O=C(c1[nH]c2ccc(F)cc2c1Sc1ccccc1)N1CCCC1` [Iy, (5-Fluoro-3-phenylsulfanyl-1H-indol-2-yl)-pyrrolidin-1-yl-methanone], 254 to 255 °C.
`O=C(c1[nH]c2ccccc2c1Sc1ccccc1)N1CCCCC1` [Ix, (3-Phenylsulfanyl-1H-indol-2yl)-piperidin-1-yl-methanone] had a melting point of 161 to 162 °C.
`Cc1ccc(Sc2c(C(=O)N3CCCC3)[nH]c3ccc(F)cc23)cc1` [Iw, (5-Fluoro-3-p-tolylsulfanyl-1H-indol-2-yl)-pyrrolidin-1-yl-methanone] registered a melting point of 254 to 255 °C.
